In PubChem BioAssay AID330 (DTP/NCI, 2004):
“And” between values parts separate entries of the source, which are not always exact repeats. Equal values may be shown once. Inconclusive results and toxic doses are left out.

Test system: P388 leukemia ip, CD2F1 mice, survival T/C
Assay: NCI In Vivo Anticancer Drug Screen. Data for tumor model P388 Leukemia (intraperitoneal) in CD2F1 (CDF1) mice
Details: endpoint: median survival time, higher = longer survival
Method in brief: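 Mice carrying the transplanted tumor received test compound or vehicle. Survival was recorded in each group, and the value is the treated-group measurement divided by that of the vehicle-treated control group.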

[1] = dose: 50.0 mg/kg/injection, schedule: Q01DX005 (ip), vehicle: saline with Tween-80
[2] = dose: 100.0 mg/kg/injection, schedule: Q01DX005 (ip), vehicle: saline with Tween-80
[3] = dose: 200.0 mg/kg/injection, schedule: Q01DX005 (ip), vehicle: saline with Tween-80
[4] = dose: 100.0 mg/kg/injection, schedule: Q04DX002 (ip), vehicle: saline with Tween-80
[5] = dose: 200.0 mg/kg/injection, schedule: Q04DX002 (ip), vehicle: saline with Tween-80

## C1CNC(SC2(SC3=NCCN3)SC3(NCCN3)S2)=N1
dose: 50.75 mg/kg/injection, schedule: Q01DX001 (ip), vehicle: saline
  T/C: 104 % of control
dose: 101.5 mg/kg/injection, schedule: Q01DX001 (ip), vehicle: saline
  T/C: 99 % of control
dose: 203.0 mg/kg/injection, schedule: Q01DX001 (ip), vehicle: saline
  T/C: 101 % of control

## CCOC(=O)C1(C)OC1c1ccc([N+](=O)[O-])cc1 (centres undefined)
dose: 100.0 mg/kg/injection, schedule: Q04DX003 (ip), vehicle: Klucel (hydroxypropylcellulose) (HPC)
  T/C: 97 % of control
dose: 200.0 mg/kg/injection, schedule: Q04DX003 (ip), vehicle: Klucel (hydroxypropylcellulose) (HPC)
  T/C: 94 % of control
dose: 400.0 mg/kg/injection, schedule: Q04DX003 (ip), vehicle: Klucel (hydroxypropylcellulose) (HPC)
  T/C: 100 % of control

## N#CC(C(=O)CCCC(=O)Nc1cccc([N+](=O)[O-])c1)c1cccc2ccccc12 (centres undefined)
dose: 60.0 mg/kg/injection, schedule: Q01DX005 (ip), vehicle: saline with Tween-80
  T/C: 104 % of control
dose: 120.0 mg/kg/injection, schedule: Q01DX005 (ip), vehicle: saline with Tween-80
  T/C: 108 % of control
dose: 240.0 mg/kg/injection, schedule: Q01DX005 (ip), vehicle: saline with Tween-80
  T/C: 101 % of control

## C[C@]12CCC[C@H](O)[C@H]1O2
dose: 100.0 mg/kg/injection, schedule: Q04DX003 (ip), vehicle: saline
  T/C: 104 % of control
dose: 200.0 mg/kg/injection, schedule: Q04DX003 (ip), vehicle: saline
  T/C: 102 % of control
dose: 400.0 mg/kg/injection, schedule: Q04DX003 (ip), vehicle: saline
  T/C: 102 % of control

## CC(C)C(NC(=O)OCc1ccccc1)C(=O)NC(Cc1c[nH]c2ccccc12)C(=O)O (centres undefined)
[1]
  T/C: 99 % of control
[2]
  T/C: 99 % of control
[3]
  T/C: 95 % of control

## O=C(Nc1ccccc1C(=O)Nc1ccccc1C(=O)O)c1cccnc1
[4]
  T/C: 109 % of control
[5]
  T/C: 100 % of control

## CC1OCC(O)C(C(O)C(=O)CN(Cc2ccccc2)Cc2ccccc2)O1 (centres undefined)
[1]
  T/C: 99 % of control
[2]
  T/C: 99 % of control
[3]
  T/C: 91 % of control

## COc1ccc2c(c1)Sc1c(Cl)c3c(c(Cl)c1=N2)Sc1cc(OC)ccc1N=3
[4]
  T/C: 102 % of control
[5]
  T/C: 112 % of control
dose: 400.0 mg/kg/injection, schedule: Q04DX002 (ip), vehicle: saline with Tween-80
  T/C: 118 % of control

## Nc1ccc(Cn2ccc3c4c(N)nc(N)nc4ccc32)cc1
dose: 1.25 mg/kg/injection, schedule: Q01DX009 (ip), vehicle: saline with Tween-80
  T/C: 106 % of control and 117 % of control
dose: 2.5 mg/kg/injection, schedule: Q01DX009 (ip), vehicle: saline with Tween-80
  T/C: 110 % of control and 111 % of control and 112 % of control
dose: 5.0 mg/kg/injection, schedule: Q01DX009 (ip), vehicle: saline with Tween-80
  T/C: 121 % of control
dose: 10.0 mg/kg/injection, schedule: Q01DX009 (ip), vehicle: saline with Tween-80
  T/C: 151 % of control and 186 % of control
dose: 20.0 mg/kg/injection, schedule: Q01DX009 (ip), vehicle: saline with Tween-80
  T/C: 182 % of control
dose: 40.0 mg/kg/injection, schedule: Q01DX009 (ip), vehicle: saline with Tween-80
  T/C: 105 % of control

## CCOC(=O)/C=C(/Nc1cccc(OC)c1)c1ccccc1
dose: 25.0 mg/kg/injection, schedule: Q01DX009 (ip), vehicle: other
  T/C: 97 % of control
dose: 50.0 mg/kg/injection, schedule: Q01DX009 (ip), vehicle: other
  T/C: 103 % of control
dose: 100.0 mg/kg/injection, schedule: Q01DX009 (ip), vehicle: other
  T/C: 98 % of control
dose: 200.0 mg/kg/injection, schedule: Q01DX009 (ip), vehicle: other
  T/C: 91 % of control
dose: 400.0 mg/kg/injection, schedule: Q01DX009 (ip), vehicle: other
  T/C: 105 % of control

## O=C(OCCc1c[nH]c2ccccc12)N(CCCl)CCCl
dose: 1.56 mg/kg/injection, schedule: Q01DX009 (ip), vehicle: distilled water + Tween-80
  T/C: 101 % of control
dose: 3.12 mg/kg/injection, schedule: Q01DX009 (ip), vehicle: distilled water + Tween-80
  T/C: 103 % of control
dose: 6.25 mg/kg/injection, schedule: Q01DX009 (ip), vehicle: distilled water + Tween-80
  T/C: 105 % of control
dose: 12.5 mg/kg/injection, schedule: Q01DX009 (ip), vehicle: distilled water + Tween-80
  T/C: 109 % of control
dose: 25.0 mg/kg/injection, schedule: Q01DX009 (ip), vehicle: distilled water + Tween-80
  T/C: 111 % of control
